How the values were obtained:
[1] = test system: fetal rat bones (radii and ulnae) in organ culture; test: PTH-induced bone resorption in organ culture (45calcium release); format: cell-based; settings: for effect on PTH-enhanced bone resorption, in words: concentrations 0.2-300 μg/ml
Method: The technique used to assess bone resorption is based on monitoring the release of radioactive calcium, previously incorporated by embryonic bones in vivo, during organ culture. Pregnant Sprague-Dawley rats were injected subcutaneously with 200 μCi of ^45 calcium chloride on the 18th day of gestation. The following day, the animals were killed, the fetuses removed, and the radii and ulnae dissected under aseptic conditions. […] The bones were then randomly distributed and each bone, either a radius or ulna, was incubated in 0.5 ml of culture media alone or in a media containing parathyroid hormone (PTH: human synthetic 1-34 peptide, Beckman Instruments, Inc., Palo Alto, California) added in a final concentration of 1.0 μg/ml; the experimental bones were incubated in the PTH containing medium to which was added different concentrations (0.2-300 μg/ml) of the antibiotics to be tested. The bones were cultured for 5 days, with the media being changed after day 2, and the incubation terminated. The bones were decalcified in 0.2 ml of 5% trichloroacetic acid and the ^45 calcium content of the residual bones and of the culture media was measured as described previously. (Werner and Raisz, Endocrinology, 90, 752 (1972 ) and Gomes, et. al., Calc. Tiss. Res., 19, 285 (1976)). The ^45 calcium released into the media was calculated as a percentage of the total radioactive calcium measured in the bones.

[2] = biological target: T1, rat PMNL collagenolytic activity (PMNL collagenase) (Rattus norvegicus, UniProt O88766); test: Rat PMNL collagenolytic activity in vitro (14C-collagen gel lysis); format: biochemical; settings: for effect on PMNL collagenolytic activity, in words / Collagenolytic Activity: % ^14 C-collagen gel lyzed: Table 2; for Collagenolytic Activity: % ^14 C-collagen gel lyzed: PMNL extract (30 × 10^6 PMNLs per ml) + 20 ug/ml, control extract 39.0
T1 construct: An extract of PMNLs was prepared; from tissue; host or cells: extract of peritoneal exudate polymorphonuclear leucocytes of non-diabetic rats, elicited with glycogen
Method: To test the effect of physiologic levels of minocycline (the concentration in human serum, during a therapeutic regimen, is approximately 2 ug/ml; that in the gingival crevicular fluid is 4-5 times greater; Ciancio, et. al., 1980, J. Periodontol., 51, 531-534) on mammalian collagenolytic activity in vitro, peritonealexudate polymorphomuclear leucocytes (PMNLs) were collected from 15 mole (non-diabetic) rats 4 hours after I.P. injection of 0.15% glycogen. An extract of PMNLs was prepared, 250 μl aliquots of this extract were incubated with ^14 C-glycine labeled collagen fibrils for 14 hours at 35° C. (in the presence or absence of minocycline, or EDTA, or additional CaCl2), and collagenolytic activity was measured as described by Nicoll, et al., (Experientia., 37, 315-317).
The techniques used to measure the collagenolytic enzyme activity of gingival tissue in culture, and in polymorphonuclear leucocytes (PMNLs), are those described by Golub, et. al., (J. Dent. Res., 57, 520-525 (197)8) and Nicoll, et. al., (Experimentia, 37, 315-317, (1981)) with minor modifications.

[3] = test system: GCF collagenase and gingival disease in diabetic twins; test: Human gingival crevicular fluid (GCF) study, diabetic twin brothers; format: in vivo; settings: 7 days of treatment
Method: In a separate study involving humans, gingival crevicular fluid (GCF) samples were collected on filter paper strips inserted into 8 interproximal pockets of selected teeth in the maxillary arch of two twin brothers with juvenile-onset (insulin-dependent) diabetes mellitus. Fluid volume was immediately determined on a modified Periotron (Model 6000, Harco Electronics Ltd., Winnipeg, Canada); then incubated with 10 μl (^3 H-methyl) collagen (20,675 DPM) and 70 μl buffer (50 mM Tris-HCl, pH 7.8, containing 0.2 M sodium chloride and 5 mM calcium chloride). The GCF samples (or reagent blanks or trypsin controls) were incubated at 27° C. for 18 hours with gentle shaking. The reaction was stopped and undigested collagen precipitated by adding 10 μl 0.1 M phenanthroline in dioxane/water (1:1, v/v), 10 μl of nonradioactive methylated carrier collagen (2 mg/ml) in 50 mM Tris-HCl buffer containing 1M NaCl (pH 7.0), and 100 μl dioxane. After mixing, the radiolabeled collagen degradation products were collected by filtration and counted in a liquid scintillation spectrometer (Golub, et. al., 1976, J. Dent. Res., 55, 1049). Using this technique, the reaction blank (no enzyme or GCF added) released about 10% of the total substrate counts; 2-20 ng bacterial collagenase produced a linear increase in the release of radioactive counts from the ^3 H-collagen substrate (the 20 ng level of enzyme degraded 60% of the collagen substrate); and 50 ng trypsin released less than 1% of the counts above blank values. GCF collagenase activity was expressed as units of equivalent activity of vertebrate collagenase (obtained from New England Nuclear, Cat. No. NEK-016); 1 unit was operationally defined as the amount of enzyme that degrades 1 μg of collagen per hour at 27° C.
Four additional GCF samples were collected from other maxillary pockets of the same diabetic twin brothers on filter paper strips, their volume determined (see above), and collagenolytic activity assessed using the same procedure described above but with a different substrate (10 μl of (^3 H-propionate) collagen, NET-660, New England Nuclear Corp., Boston, Mass., 302,000 DPM).
Half of the 12 GCF samples per subject were activated by pretreatment with 1.04 uM trypsin followed by the addition of a 5-fold molar excess of soybean trypsin inhibitor. Samples were selected to be treated or not treated with trypsin by matching them for Gingival Index (Loe and Silness, Acta. Odont. Scand., 21, 533-551 (1967)), GCF flow, and for pocket depth; the clincal parameters (GI, PD) were measured immediately after GCF collection. All measurements were carried out immediately before antibiotic coverage and after 7 days of treatment with either pencillin G (lg. per day; patient three) or the tetracycline minocycline (200 mg/day; patient one).

[4] = test system: ^14 C-glycine labeled collagen fibrils; test: Lysis of 14C-collagen gel by control enzymes (no PMNL extract); format: biochemical; settings: Table 1, 1 μg enzyme
[5] = penicillin G 1 g per day (P. D.) or minocycline 200 mg/day (K. D.)

T1 sequence (O88766 102-466): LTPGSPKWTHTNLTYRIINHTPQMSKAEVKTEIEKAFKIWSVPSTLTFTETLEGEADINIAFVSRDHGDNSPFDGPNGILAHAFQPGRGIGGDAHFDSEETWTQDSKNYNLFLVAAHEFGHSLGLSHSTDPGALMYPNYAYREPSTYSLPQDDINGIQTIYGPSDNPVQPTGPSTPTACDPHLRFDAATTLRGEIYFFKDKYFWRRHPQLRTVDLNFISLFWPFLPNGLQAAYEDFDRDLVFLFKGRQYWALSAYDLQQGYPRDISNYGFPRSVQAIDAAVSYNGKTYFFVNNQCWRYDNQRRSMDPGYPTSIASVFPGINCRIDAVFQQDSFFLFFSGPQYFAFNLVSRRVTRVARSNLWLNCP

[H]/N=C(/N)N[C@H]1[C@H](O)[C@@H](O)[C@H](O[C@@H]2O[C@@H](C)[C@](O)(C=O)[C@H]2O[C@@H]2O[C@@H](CO)[C@H](O)[C@@H](O)[C@@H]2NC)[C@@H](N/C(N)=N\[H])[C@@H]1O [streptomycin]
effect on PTH-enhanced bone resorption, in words [1]: no detectable effect

CC1(C)S[C@@H]2[C@H](NC(=O)[C@H](N)c3ccccc3)C(=O)N2[C@H]1C(=O)O [ampicillin]
effect on PMNL collagenolytic activity, in words [2]: ineffective
Collagenolytic Activity: % ^14 C-collagen gel lyzed [2]: 35.7%
^45 Calcium in Fetal Bone Released into Media (%) after 2 days incubation ([1]; Table 5, PTH + 6 μg/ml): 52.3 ± 1.9%
^45 Calcium in fetal bone Released into media (%) after 5 days incubation ([1]; Table 5, PTH + 6 μg/ml): 92.2 ± 2.0%
^45 Calcium in Fetal Bone Released into Media (%) after 2 days incubation ([1]; Table 5, PTH + 20 μg/ml): 52.8 ± 1.7%
^45 Calcium in fetal bone Released into media (%) after 5 days incubation ([1]; Table 5, PTH + 20 μg/ml): 92.6 ± 0.5%
^45 Calcium in Fetal Bone Released into Media (%) after 2 days incubation ([1]; Table 5, PTH + 40 μg/ml): 51.9 ± 2.1%
^45 Calcium in fetal bone Released into media (%) after 5 days incubation ([1]; Table 5, PTH + 40 μg/ml): 94.2 ± 1.1%
^45 Calcium in Fetal Bone Released into Media (%) after 2 days incubation ([1]; Table 5, PTH + 60 μg/ml): 50.9 ± 1.7%
^45 Calcium in fetal bone Released into media (%) after 5 days incubation ([1]; Table 5, PTH + 60 μg/ml): 93.9 ± 0.7%
^45 Calcium in Fetal Bone Released into Media (%) after 2 days incubation ([1]; Table 5, PTH + 200 μg/ml): 50.8 ± 1.8%
^45 Calcium in fetal bone Released into media (%) after 5 days incubation ([1]; Table 5, PTH + 200 μg/ml): 91.4 ± 0.7%
effect on PTH-enhanced bone resorption, in words [1]: no detectable effect

PTH: parathyroid hormone, human synthetic 1-34 peptide, Beckman Instruments, final concentration 1.0 μg/ml
increase of the loss of radiolabeled calcium by addition of PTH ([1]; PTH 1.0 μg/ml versus culture media alone, Tables 3-5): 90-160%
^45 Calcium in Fetal Bone Released into Media (%) after 2 days incubation ([1]; Table 3, PTH alone 1.0 μg/ml, no addition 19.9 ± 1.5): 46.1 ± 1.9%
^45 Calcium in fetal bone Released into media (%) after 5 days incubation ([1]; Table 3, PTH alone 1.0 μg/ml, no addition 27.6 ± 1.3): 73.3 ± 1.3%
^45 Calcium in Fetal Bone Released into Media (%) after 2 days incubation ([1]; Table 4, PTH alone, no addition 27.1 ± 1.0): 61.6 ± 1.2%
^45 Calcium in Fetal Bone Released into Media (%) after 2 days incubation ([1]; Table 4, PTH alone, no addition 50.8 ± 1.8): 97.9 ± 0.7%
^45 Calcium in Fetal Bone Released into Media (%) after 2 days incubation ([1]; Table 5, PTH alone, no addition 22.4 ± 0.7): 51.2 ± 1.4%
^45 Calcium in fetal bone Released into media (%) after 5 days incubation ([1]; Table 5, PTH alone, no addition 46.7 ± 3.0): 91.9 ± 1.7%

C[C@H]1c2cccc(O)c2C(O)=C2C(=O)[C@]3(O)C(O)=C(C(N)=O)C(=O)[C@@H](N(C)C)[C@@H]3[C@@H](O)[C@@H]21 [doxycycline, Doxycycline]
Collagenolytic Activity: % ^14 C-collagen gel lyzed [2]: 4.5%
^45 Calcium in Fetal Bone Released into Media (%) after 2 days incubation ([1]; Table 4, first column, PTH + 0.2 μg/ml): 56.6 ± 2.0%
^45 Calcium in Fetal Bone Released into Media (%) after 2 days incubation ([1]; Table 4, first column, PTH + 2.0 μg/ml): 57.5 ± 2.5%
^45 Calcium in Fetal Bone Released into Media (%) after 2 days incubation ([1]; Table 4, first column, PTH + 20 μg/ml): 30.6 ± 1.7%
^45 Calcium in Fetal Bone Released into Media (%) after 2 days incubation ([1]; Table 4, first column, PTH + 200 μg/ml): 18.8 ± 1.1%
^45 Calcium in Fetal Bone Released into Media (%) after 2 days incubation ([1]; Table 4, second column, PTH + 0.2 μg/ml): 97.1 ± 0.7%
^45 Calcium in Fetal Bone Released into Media (%) after 2 days incubation ([1]; Table 4, second column, PTH + 2.0 μg/ml): 93.5 ± 1.7%
^45 Calcium in Fetal Bone Released into Media (%) after 2 days incubation ([1]; Table 4, second column, PTH + 20 μg/ml): 35.3 ± 1.6%
^45 Calcium in Fetal Bone Released into Media (%) after 2 days incubation ([1]; Table 4, second column, PTH + 200 μg/ml): 28.7 ± 0.8%
effect on PTH-enhanced bone resorption, in words [1]: inhibited bone resorption in a dose responsive manner

Cc1nnc(SCC2=C(C(=O)O)N3C(=O)[C@@H](NC(=O)Cn4cnnn4)[C@H]3SC2)s1 [cefazolin]
effect on PMNL collagenolytic activity, in words [2]: ineffective
Collagenolytic Activity: % ^14 C-collagen gel lyzed [2]: 50.0%
^45 Calcium in Fetal Bone Released into Media (%) after 2 days incubation ([1]; Table 5, PTH + 6 μg/ml): 50.8 ± 1.3%
^45 Calcium in fetal bone Released into media (%) after 5 days incubation ([1]; Table 5, PTH + 6 μg/ml): 93.1 ± 0.5%
^45 Calcium in Fetal Bone Released into Media (%) after 2 days incubation ([1]; Table 5, PTH + 20 μg/ml): 54.2 ± 1.4%
^45 Calcium in fetal bone Released into media (%) after 5 days incubation ([1]; Table 5, PTH + 20 μg/ml): 93.6 ± 0.4%
^45 Calcium in Fetal Bone Released into Media (%) after 2 days incubation ([1]; Table 5, PTH + 60 μg/ml): 54.5 ± 1.2%
^45 Calcium in fetal bone Released into media (%) after 5 days incubation ([1]; Table 5, PTH + 60 μg/ml): 94.6 ± 1.2%
^45 Calcium in Fetal Bone Released into Media (%) after 2 days incubation ([1]; Table 5, PTH + 120 μg/ml): 50.3 ± 3.1%
^45 Calcium in fetal bone Released into media (%) after 5 days incubation ([1]; Table 5, PTH + 120 μg/ml): 90.2 ± 3.1%
^45 Calcium in Fetal Bone Released into Media (%) after 2 days incubation ([1]; Table 5, PTH + 200 μg/ml): 50.9 ± 1.3%
^45 Calcium in fetal bone Released into media (%) after 5 days incubation ([1]; Table 5, PTH + 200 μg/ml): 92.1 ± 0.6%
effect on PTH-enhanced bone resorption, in words [1]: no detectable effect

O=C(O)CN(CCN(CC(=O)O)CC(=O)O)CC(=O)O [EDTA]
effect on PMNL collagenolytic (collagenase) activity, in words ([2]; Table 1): completely inihibited
Collagenolytic Activity: % ^14 C-collagen gel lysed ([2]; Table 1, PMNL extract + 54 mM, control extract 85.5): 3.1%

CN(C)[C@@H]1C(=O)C(C(N)=O)=C(O)[C@@]2(O)C(=O)C3=C(O)c4c(O)cccc4[C@@](C)(O)[C@H]3[C@H](O)[C@@H]12 [Terramycin, Oxytetracycline]
Collagenolytic Activity: % ^14 C-collagen gel lyzed [2]: 4.4%

CC1(C)S[C@@H]2[C@H](NC(=O)Cc3ccccc3)C(=O)N2[C@H]1C(=O)O [penicillin]
GCF flow [3, 5]: little or no effect
Gram-positive and Gram-negative organisms in the pockets [3, 5]: reduced the Gram-positive but increased the Gram-negative organisms
active GCF collagenase [3, 5]: little or no effect
pocket depth [3, 5]: little or no effect
total GCF collagenase (after trypsin pretreatment) [3, 5]: appeared to increase
Gingival Index (G. I.) ([3]; penicillin G 1 g per day (patient three) or minocycline 200 mg/day (patient one)): little or no effect
effect on PTH-enhanced bone resorption, in words [1]: no detectable effect

B1: Trypsin: protease control for non-specific proteolysis of the collagen substrate (protein, UniProt P00760 24-246, looked up)
Serine protease 1: IVGGYTCGANTVPYQVSLNSGYHFCGGSLINSQWVVSAAHCYKSGIQVRLGEDNINVVEGNEQFISASKSIVHPSYNSNTLNNDIMLIKLKSAASLNSRVASISLPTSCASAGTQCLISGWGNTKSSGTSYPDVLKCLKAPILSDSSCKSAYPGQITSNMFCAGYLEGGKDSCQGDSGGPVVCSGKLQGIVSWGSGCAQKNKPGVYTKVCNYVSWIKQTIASN
Collagenolytic Activity: % ^14 C-collagen gel lysed [4]: 2.6%

From patent publication US4666897A, “Inhibition of mammalian collagenolytic enzymes by tetracyclines” (Research Foundation of State University, priority 1983, dated 1987)
